Results as given in article PMC11864979, “First-in-class ultralong-target-residence-time p38α inhibitors as a mitosis-targeted therapy for colorectal cancer” (Nature Cancer, 2025).
Like-named read-outs stand apart in the source and are kept apart here.

Legend:
Assay in all cases: selectivity profiling in a panel of 340 wild-type kinases (Reaction Biology Europe)
Format in all cases: binding
340 wild-type kinases [1] = biological target: T1, 340 wild-type kinases (Homo sapiens, UniProt Q86Z02)
T1 construct: purchased Reaction Biology Europe
T1 sequence (Q86Z02 whole entry): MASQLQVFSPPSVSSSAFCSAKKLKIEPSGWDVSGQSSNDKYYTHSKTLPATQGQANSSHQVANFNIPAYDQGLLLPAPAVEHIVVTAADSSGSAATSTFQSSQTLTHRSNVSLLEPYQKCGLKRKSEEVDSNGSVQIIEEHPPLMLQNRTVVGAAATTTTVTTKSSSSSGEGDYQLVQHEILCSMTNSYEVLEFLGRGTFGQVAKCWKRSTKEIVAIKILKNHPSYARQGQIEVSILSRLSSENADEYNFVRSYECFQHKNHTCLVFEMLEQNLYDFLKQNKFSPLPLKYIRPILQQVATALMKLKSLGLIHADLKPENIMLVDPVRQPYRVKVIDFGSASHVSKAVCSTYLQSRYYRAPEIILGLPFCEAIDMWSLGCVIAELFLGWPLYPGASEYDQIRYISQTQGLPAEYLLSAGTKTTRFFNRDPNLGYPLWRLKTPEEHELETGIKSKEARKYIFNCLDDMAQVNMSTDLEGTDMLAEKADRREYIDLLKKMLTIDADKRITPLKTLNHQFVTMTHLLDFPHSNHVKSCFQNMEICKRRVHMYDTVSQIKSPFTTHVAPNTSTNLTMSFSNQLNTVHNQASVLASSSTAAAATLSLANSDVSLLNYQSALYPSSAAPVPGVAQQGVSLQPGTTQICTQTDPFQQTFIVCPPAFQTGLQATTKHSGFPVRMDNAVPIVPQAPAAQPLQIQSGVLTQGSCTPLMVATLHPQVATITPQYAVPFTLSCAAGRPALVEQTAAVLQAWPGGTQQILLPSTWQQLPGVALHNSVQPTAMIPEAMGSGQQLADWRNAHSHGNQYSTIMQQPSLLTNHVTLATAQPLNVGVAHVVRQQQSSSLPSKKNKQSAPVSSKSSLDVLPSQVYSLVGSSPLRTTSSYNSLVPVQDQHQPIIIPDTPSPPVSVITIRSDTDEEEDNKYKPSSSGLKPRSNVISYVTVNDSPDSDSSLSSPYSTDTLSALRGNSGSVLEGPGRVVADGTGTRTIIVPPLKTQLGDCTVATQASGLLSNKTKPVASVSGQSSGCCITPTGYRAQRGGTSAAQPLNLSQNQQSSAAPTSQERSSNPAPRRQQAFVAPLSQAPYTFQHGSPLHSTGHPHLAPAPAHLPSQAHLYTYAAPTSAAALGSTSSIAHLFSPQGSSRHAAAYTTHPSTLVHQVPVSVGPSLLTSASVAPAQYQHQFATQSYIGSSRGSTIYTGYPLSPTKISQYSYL

340 wild-type kinases [2] = biological target: T2, 340 wild-type kinases (Homo sapiens, UniProt Q9Y2H1)
T2 construct: purchased Reaction Biology Europe
T2 sequence (Q9Y2H1 whole entry): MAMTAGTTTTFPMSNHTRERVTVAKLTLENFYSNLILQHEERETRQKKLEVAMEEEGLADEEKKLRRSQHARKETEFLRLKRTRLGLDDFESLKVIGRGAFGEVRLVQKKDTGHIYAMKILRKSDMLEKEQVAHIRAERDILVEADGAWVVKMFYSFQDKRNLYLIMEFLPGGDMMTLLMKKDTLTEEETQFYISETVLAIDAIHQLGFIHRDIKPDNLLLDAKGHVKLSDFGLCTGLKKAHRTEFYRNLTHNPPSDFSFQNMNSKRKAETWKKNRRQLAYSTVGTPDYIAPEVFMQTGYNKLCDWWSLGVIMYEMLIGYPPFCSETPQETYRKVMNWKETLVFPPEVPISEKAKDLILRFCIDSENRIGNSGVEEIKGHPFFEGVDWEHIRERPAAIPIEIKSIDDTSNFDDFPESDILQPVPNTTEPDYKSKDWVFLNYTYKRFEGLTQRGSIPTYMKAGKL

340 wild-type kinases [3] = biological target: T3, 340 wild-type kinases (Homo sapiens, UniProt P29320)
T3 construct: purchased Reaction Biology Europe
T3 sequence (P29320 21-983): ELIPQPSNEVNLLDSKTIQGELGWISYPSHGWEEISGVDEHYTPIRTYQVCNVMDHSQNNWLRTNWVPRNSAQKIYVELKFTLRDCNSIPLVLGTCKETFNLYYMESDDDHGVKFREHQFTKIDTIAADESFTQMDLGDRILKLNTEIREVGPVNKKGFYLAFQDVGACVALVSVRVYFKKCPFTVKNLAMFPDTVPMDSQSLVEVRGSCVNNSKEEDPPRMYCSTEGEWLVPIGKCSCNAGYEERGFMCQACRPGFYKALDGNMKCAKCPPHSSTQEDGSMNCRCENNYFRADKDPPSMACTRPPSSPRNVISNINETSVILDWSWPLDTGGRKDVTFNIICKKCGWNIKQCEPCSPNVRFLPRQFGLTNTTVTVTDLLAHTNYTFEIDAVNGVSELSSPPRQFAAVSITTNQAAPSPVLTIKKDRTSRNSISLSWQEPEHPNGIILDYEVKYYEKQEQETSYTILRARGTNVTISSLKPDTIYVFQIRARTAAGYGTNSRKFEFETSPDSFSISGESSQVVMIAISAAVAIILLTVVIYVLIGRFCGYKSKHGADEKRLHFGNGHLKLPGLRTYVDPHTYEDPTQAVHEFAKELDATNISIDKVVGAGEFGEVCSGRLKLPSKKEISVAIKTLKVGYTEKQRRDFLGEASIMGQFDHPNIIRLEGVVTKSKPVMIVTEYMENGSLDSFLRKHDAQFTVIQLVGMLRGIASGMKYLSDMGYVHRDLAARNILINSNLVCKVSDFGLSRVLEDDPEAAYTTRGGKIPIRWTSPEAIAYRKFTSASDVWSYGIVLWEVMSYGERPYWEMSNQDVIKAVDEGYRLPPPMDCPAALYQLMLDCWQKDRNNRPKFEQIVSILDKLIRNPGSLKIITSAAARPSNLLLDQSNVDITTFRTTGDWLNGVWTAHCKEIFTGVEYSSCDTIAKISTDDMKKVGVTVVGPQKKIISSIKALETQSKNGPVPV

340 wild-type kinases [4] = biological target: T4, 340 wild-type kinases (Homo sapiens, UniProt P45985)
T4 construct: purchased Reaction Biology Europe
T4 sequence (P45985 1-399): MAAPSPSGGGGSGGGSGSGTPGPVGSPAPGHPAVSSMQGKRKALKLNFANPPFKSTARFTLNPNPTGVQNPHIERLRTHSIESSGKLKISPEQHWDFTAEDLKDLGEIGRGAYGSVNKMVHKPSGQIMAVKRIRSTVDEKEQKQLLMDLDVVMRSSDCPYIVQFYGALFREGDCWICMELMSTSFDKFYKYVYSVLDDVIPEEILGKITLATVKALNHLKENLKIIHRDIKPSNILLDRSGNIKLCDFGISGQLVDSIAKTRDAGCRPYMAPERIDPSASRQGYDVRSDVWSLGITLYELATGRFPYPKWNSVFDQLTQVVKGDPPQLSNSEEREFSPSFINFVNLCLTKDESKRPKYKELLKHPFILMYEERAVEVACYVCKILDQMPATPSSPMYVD

340 wild-type kinases [5] = biological target: T5, 340 wild-type kinases (Homo sapiens, UniProt Q99640)
T5 construct: purchased Reaction Biology Europe
T5 sequence (Q99640 1-499): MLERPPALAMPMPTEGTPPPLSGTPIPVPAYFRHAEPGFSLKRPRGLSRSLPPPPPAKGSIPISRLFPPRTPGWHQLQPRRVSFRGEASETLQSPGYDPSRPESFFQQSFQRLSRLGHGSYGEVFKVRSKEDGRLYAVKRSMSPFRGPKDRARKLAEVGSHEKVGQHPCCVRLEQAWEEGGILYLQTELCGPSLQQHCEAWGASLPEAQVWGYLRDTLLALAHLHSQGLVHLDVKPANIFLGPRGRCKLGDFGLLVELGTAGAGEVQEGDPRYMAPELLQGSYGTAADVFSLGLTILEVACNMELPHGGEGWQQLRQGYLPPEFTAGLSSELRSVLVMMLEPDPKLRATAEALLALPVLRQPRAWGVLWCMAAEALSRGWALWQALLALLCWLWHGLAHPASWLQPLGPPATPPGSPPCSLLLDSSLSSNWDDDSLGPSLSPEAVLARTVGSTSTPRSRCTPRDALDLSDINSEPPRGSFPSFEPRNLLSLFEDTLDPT

340 wild-type kinases [6] = biological target: T6, 340 wild-type kinases (Homo sapiens, UniProt O96017)
T6 construct: purchased Reaction Biology Europe
T6 sequence (O96017 whole entry): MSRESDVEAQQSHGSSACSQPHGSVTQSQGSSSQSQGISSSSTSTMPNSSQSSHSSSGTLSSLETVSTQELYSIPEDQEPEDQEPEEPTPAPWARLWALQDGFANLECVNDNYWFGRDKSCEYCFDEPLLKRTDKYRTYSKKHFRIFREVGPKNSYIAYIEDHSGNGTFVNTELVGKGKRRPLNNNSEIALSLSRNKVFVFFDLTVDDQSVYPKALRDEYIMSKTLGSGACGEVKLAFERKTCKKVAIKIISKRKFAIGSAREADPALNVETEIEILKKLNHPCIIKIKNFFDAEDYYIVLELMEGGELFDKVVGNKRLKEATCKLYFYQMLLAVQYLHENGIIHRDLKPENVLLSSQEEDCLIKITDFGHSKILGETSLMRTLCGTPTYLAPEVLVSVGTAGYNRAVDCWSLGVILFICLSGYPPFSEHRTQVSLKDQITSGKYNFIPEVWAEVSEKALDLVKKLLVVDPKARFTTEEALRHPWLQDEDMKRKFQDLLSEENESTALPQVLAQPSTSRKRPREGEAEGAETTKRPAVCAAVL

**Q.** With `CNC(=O)c1ccc2c(c1)C(=O)c1ccc(Nc3ccc(F)c(NC(=O)C4CC4)c3)cc1CC2` [Compound 2015] as the compound, how does the remaining activity at 0.2 µM (340 wild-type kinases [1]; 0.2 µM 2015, read-out: HIPK1 residual activity) read?
**A.** 98.9%

**Q.** What about the remaining activity at 1 µM (340 wild-type kinases [1]; 1 µM 2015, read-out: HIPK1 residual activity) of the same compound?
**A.** 102%

**Q.** What about the remaining activity at 0.2 µM (340 wild-type kinases [1]; HIPK1, 0.2 µM, read-out: residual activity) of the same compound?
**A.** 98.9%

**Q.** And the remaining activity at 1 µM (340 wild-type kinases [1]; HIPK1, 1 µM, read-out: residual activity)?
**A.** 102%

**Q.** What about the remaining activity at 0.2 µM (340 wild-type kinases [2]; 0.2 µM 2015, read-out: NDR2 residual activity) of the same compound?
**A.** 97.8%

**Q.** What about the remaining activity at 1 µM (340 wild-type kinases [2]; 1 µM 2015, read-out: NDR2 residual activity) of the same compound?
**A.** 96.6%

**Q.** And the remaining activity at 0.2 µM (340 wild-type kinases [2]; NDR2, 0.2 µM, read-out: residual activity)?
**A.** 97.8%

**Q.** And the remaining activity at 1 µM (340 wild-type kinases [2]; NDR2, 1 µM, read-out: residual activity)?
**A.** 96.7%

**Q.** And the remaining activity at 0.2 µM (340 wild-type kinases [3]; 0.2 µM 2015, read-out: EPHA3 residual activity)?
**A.** 100%

**Q.** And the remaining activity at 1 µM (340 wild-type kinases [3]; 1 µM 2015, read-out: EPHA3 residual activity)?
**A.** 96.4%

**Q.** And the remaining activity at 0.2 µM (340 wild-type kinases [3]; EPHA3, 0.2 µM, read-out: residual activity)?
**A.** 100%

**Q.** What about the remaining activity at 1 µM (340 wild-type kinases [3]; EPHA3, 1 µM, read-out: residual activity) of the same compound?
**A.** 96.3%

**Q.** And the remaining activity at 0.2 µM (340 wild-type kinases [4]; 0.2 µM 2015, read-out: MKK4 residual activity)?
**A.** 81.9%

**Q.** What about the remaining activity at 1 µM (340 wild-type kinases [4]; 1 µM 2015, read-out: MKK4 residual activity) of the same compound?
**A.** 91.3%

**Q.** What about the remaining activity at 0.2 µM (340 wild-type kinases [4]; MKK4, 0.2 µM, read-out: residual activity) of the same compound?
**A.** 81.9%

**Q.** And the remaining activity at 1 µM (340 wild-type kinases [4]; MKK4, 1 µM, read-out: residual activity)?
**A.** 91.3%

**Q.** What about the remaining activity at 0.2 µM (340 wild-type kinases [5]; 0.2 µM 2015, read-out: PKMYT1 residual activity) of the same compound?
**A.** 98.1%

**Q.** What about the remaining activity at 1 µM (340 wild-type kinases [5]; 1 µM 2015, read-out: PKMYT1 residual activity) of the same compound?
**A.** 102%

**Q.** What about the remaining activity at 0.2 µM (340 wild-type kinases [5]; PKMYT1, 0.2 µM, read-out: residual activity) of the same compound?
**A.** 98%

**Q.** And the remaining activity at 1 µM (340 wild-type kinases [5]; PKMYT1, 1 µM, read-out: residual activity)?
**A.** 102%

**Q.** And the remaining activity at 0.2 µM (340 wild-type kinases [6]; 0.2 µM 2015, read-out: CHK2 residual activity)?
**A.** 102%

**Q.** What about the remaining activity at 1 µM (340 wild-type kinases [6]; 1 µM 2015, read-out: CHK2 residual activity) of the same compound?
**A.** 94.9%

**Q.** And the remaining activity at 0.2 µM (340 wild-type kinases [6]; CHK2, 0.2 µM, read-out: residual activity)?
**A.** 102%

**Q.** And the remaining activity at 1 µM (340 wild-type kinases [6]; CHK2, 1 µM, read-out: residual activity)?
**A.** 94.9%
